Results: patent US11684652B2, “HMGB1 antagonist treatment of acute lung injury” (THE FEINSTEIN INSTITUTES FOR MEDICAL RESEARCH, priority 2019, dated 2023)
“And” between values parts separate entries of the source, which are not always exact repeats. Equal entries are not always repeated. “Also recorded” adds a separate entry of the source. Where two headings read alike, the source gives them in different places.

Experiments:
STZ-induced diabetes = STZ-induced diabetes model; type: in vivo; conditions: STZ-diabetic mice, repetitive K883 500 μg/mouse, vs PBS
Procedure: Mice were administered repetitive administration of […] (500 μg/mouse). […] Repetitive administration of […] was therefore shown to be beneficial in STZ-induced diabetes. […] (*: P<0.05 vs. PBS group. N=6-8 mice per group).

[1] = system: APAP-induced liver injury; assay: APAP-induced liver injury model; type: in vivo, mouse
[2] = pharmacokinetics after intravenous administration in rats (LC-MS); conditions: IV 1 mg/kg
[3] = system: liver ischemia and reperfusion injury; assay: warm liver ischemia and reperfusion (I/R) model; type: in vivo, mouse; conditions: 6 hours after reperfusion, K883 vs vehicle control; FIGS. 21A-C
Procedure: […] (SEQ ID NO: 1) (or vehicle control) was administered intraperitoneally at 500 μg/mouse at the time of I/R surgery and euthanized 6 hours later. Serum levels of ALT and AST were reduced in […] (SEQ ID NO: 1)-treated group vs. vehicle controls. *: P<0.05 vs. I/R group. n=5-7 mice/group.

[4] = system: CCI-induced neuropathic pain; assay: chronic constriction injury (CCI) of the sciatic nerve neuropathic pain model; type: in vivo, rat
Procedure: The CCI rats each received surgery. […] Mechanical and thermal sensitivity tests were also performed over time. Hargreaves Thermal Hypersensitivity test was administered to the rats as well as Von Frey mechanical hypersensitivity test.
Rats (male Wistar, 150-180 gm, n=6/group) had CCI surgery. […] Two weeks after surgery, thermal (Hargreaves) or mechanical (von Frey) hypersensitivity was assessed. *: P<0.05 vs. PBS group.
In this experiment, male Wistar rats (n=6/group) had CCI surgery. […] Mechanical allodynia was assessed 5 hours later. N=6-8 rats/group. *: p<0.05) vs. HMGB 1 alone. Mechanical and thermal sensitivity tests were also performed over time.

[5] = system: influenza virus A/PR/8/34 (PR8); assay: lethal influenza infection model; type: in vivo; conditions: C57BL/6J mice; K883 100 ug/mouse intraperitoneally for 5 consecutive days from two days after infection; vs vehicle
[6] = system: PAMPs-induced TNF release (LPS, PGN, poly I:C, S100A12); assay: PAMPs-induced TNF release in human macrophages; type: cell-based; conditions: human primary macrophages, increasing amounts of K883, 16 hours
Procedure: TNF released was measured.

[7] = stability under acidic conditions (LC-MS); type: physicochemical; conditions: pH=2, two hours
[8] = system: APAP-induced liver injury; conditions: cited from earlier work
[9] = system: liver ischemia and reperfusion injury; conditions: cited from earlier work
[10] = system: PAMPs-induced TNF release (LPS, PGN, poly I:C, S100A12); conditions: Yang 2015; cited from earlier work

What does the source list for `NC(=O)N(CCC(=O)O)NC(=O)[C@H](CO)NC(=O)[C@H](CO)NC(=O)N(N)Cc1ccccc1` [K883]?
hyperglycemia (STZ-induced diabetes): delays hyperglycemia; insulitis (STZ-induced diabetes): reduces insulitis; weight gain (STZ-induced diabetes): improves weight gain; serum ALT ([1]; 50 ugs/mouse of K883, vs vehicle controls): reduced serum ALT; liver necrosis (H&E) ([1]; APAP 350 mg/kg IP, K883 50 μg/mouse IP at 2 and 7 hours post-APAP, 24 hours, vs vehicle): reduced liver necrosis; survival (2 weeks) post-APAP ([1]; APAP 400 mg/kg, 50 μg/mouse IP once-a-day for 5 days starting 2 hours post-APAP, 8 in the control group): 14 mice out of 15; AUC∞ ([2]; Mean): 3778 ng·h/mL; AUC∞ ([2]; individual rats, 1 mg/kg): 3808 ng·h/mL and 3751 ng·h/mL; liver inflammation, H&E (neutrophil infiltration) [3]: reduced inflammation; tolerance to repeated treatment ([4]; K883 800 μg/rat IP once daily for three days, evaluated for 2 weeks): did not develop tolerance; Paw Withdrawal Latency ([4]; NO CCI (reference value)): 9.5 ± 1.0 s; CCI-induced thermal (Hargreaves) and mechanical (von Frey) hypersensitivity ([4]; male Wistar rats, K883 800 μg/rat IP once a day for 3 days, vs PBS): ameliorated both mechanical and thermal hypersensitivity; also recorded: improved CCI-induced thermal and mechanical hypersensitivity; also recorded: ameliorated the thermal hypersensitivity; CCI-induced CXCL1, TNF and IL-1β expression (spine) ([4]; spine): reduce CCI-induced CSCL1, TNF and IL-1(3 expression; survival (14 days) after PR8 infection [5]: significant survival; inhibition of TNF release induced by other PAMPs (LPS, PGN, AGE, Poly I:C) [6]: failed to inhibit other PAMPS; also recorded: does not inhibit other PAMPs; stability under acidic conditions [7]: resistant to acid hydrolysis

Which “liver necrosis (H&E)” value ([8]; APAP 350 mg/kg, P5779 50 or 500 μg/mouse IP at 2 and 7 hours post-APAP, vs scrambled control peptide) does the source give for `NC(=O)[C@H](CCC(=O)O)NC(=O)[C@H](CO)NC(=O)[C@H](CO)NC(=O)[C@@H](N)Cc1ccccc1` [P5779] here?
The value was “reduced liver necrosis”.

And the “percent survival (2 weeks) post-APAP” value ([8]; APAP 400 mg/kg, P5779 500 μg/mouse IP once a day for 5 days starting 2 hours post-APAP)?
Its value is “significantly improved”.

What about the “liver inflammation, H&E (neutrophil infiltration)” value ([9]; 6 hours after reperfusion, P5779 vs vehicle control) of the same compound?
The value was “reduced inflammation”.

And the “serum levels of ALT and AST” value ([9]; male C57BL/6 mice, 500 μg/mouse IP at the time of I/R surgery, 6 hours, vs vehicle)?
The value was “reduced”.

And the “suppression of TNF release in macrophages stimulated by LPS, PGN, Poly I:C, CpG DNA or S100 A12” value [10]?
The value was “not suppress TNF release”.
